Measurements published in US8193203B2, “Bicyclic compounds having activity at the CXCR4 receptor” (Allergan, Inc., priority 2008, dated 2012).

Target: T1, human CXCR4 receptor (Homo sapiens, UniProt P61073)
T1 construct: expressed in transfected cells
Assay: Measurement of intracellular Ca+2 responses (FLIPR), antagonism of the SDF-1α response
Type: cell-based
Conditions: for IC50: HEK-Gqi5 cells stably expressing human CXCR4, Fluo-4 FLIPR, antagonism of SDF-1α 1.9 nM (EC65); for CXCR4 (% Inh): percent antagonism of SDF-1α 1.9 nM (EC65) response, HEK-Gqi5 human CXCR4 cells, value in brackets
Description: Measurement of Intracellular Ca^+2 Responses for CXCR4 Compounds
HEK-Gqi5 cells stably expressing the human CXCR4 receptor were utilized for these studies. The growth media for the CXCR4 receptor expressing cell line was DMEM high glucose medium supplemented with 10% fetal bovine serum (FBS), 1% antibiotic-antimycotic, 50 ug/ml hygromycin B, and 400 μg/ml geneticin. Ten thousand cells per well were plated into 384-well poly-D-lysine coated plates one day prior to use. On the day of the experiment, the cells were washed twice with Hank's Balanced Salt Solution supplemented with 20 mM hepes (HBSS/hepes buffer). The cells were then dye loaded with 2 uM Fluo-4 diluted in the HBSS/Hepes buffer and incubated at 37° C. for 40 minutes. Extracellular dye was removed by washing the cell plates four times prior to placing the plates in the FLIPR (Fluorometric Imaging Plate Reader, Molecular Devices). Ligands were diluted in HBSS/Hepes buffer and prepared in 384-well microplates. The positive control, stromal-cell derived factor-1 (SDF-1α), was diluted in HBSS/Hepes buffer with 4 mg/ml fatty acid free bovine serum albumin. Two drug additions were made by the FLIPR. The first drug addition was the test drug in concentrations ranging from 2.44 nM to 40,000 nM. After this addition, fluorescent measurements were taken. Any calcium release in response to this drug addition represents agonist activity of the compounds. The second drug addition was SDF-1α at a final concentration of 1.9 nM (EC65). Fluorescence measurements were also taken after this second drug addition and were used to determine the ability of the test compounds to antagonize the SDF-1α response. Results were expressed as EC50 and efficacy values, as well as IC50 and percent antagonism values. As controls, SDF-1α (CXCR4 agonist) and AMD3100 (CXCR4 antagonist) dose-response curves were also determined in each study.

T1 sequence (P61073 whole entry): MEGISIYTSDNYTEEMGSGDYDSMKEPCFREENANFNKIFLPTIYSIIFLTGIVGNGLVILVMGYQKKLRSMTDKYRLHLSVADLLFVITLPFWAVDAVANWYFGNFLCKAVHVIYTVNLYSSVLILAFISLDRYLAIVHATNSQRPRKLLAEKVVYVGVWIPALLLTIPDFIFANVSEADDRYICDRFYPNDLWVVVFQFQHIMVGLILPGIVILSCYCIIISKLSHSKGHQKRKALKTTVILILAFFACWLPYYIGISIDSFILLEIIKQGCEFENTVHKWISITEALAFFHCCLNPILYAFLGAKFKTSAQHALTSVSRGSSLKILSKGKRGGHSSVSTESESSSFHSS

Row | Structure (SMILES) | IC50 (values in nM) [nM] | CXCR4 (% Inh) [%] | IC50 (values given in μM) [nM] | IC50 (unit of the source corrected, heading: CXCR4 IC50, values given in μM) [nM]
1 | COc1cccc(N(C)C)c1CN1CCC(Nc2nc(NC3CCN(C)CC3)nc3ccccc23)CC1 [Compound 94, N4-(1-(2-(Dimethylamino)-6-methoxybenzyl)piperidin-4-yl)-N2-(1-methylpiperidin-4-yl)quinazoline-2,4-diamine] | 790 | 96 |  | 
2 | COc1cccc(N(C)C)c1CN1CCC(Nc2nc(NCCN3CC(C)OC(C)C3)nc3ccccc23)CC1 (centres unmarked) [Compound 95, N4-(1-(2-(Dimethylamino)-6-methoxybenzyl)piperidin-4-yl)-N2-(2-(2,6-dimethylmorpholino)ethyl)quinazoline-2,4-diamine] | 605 | 98 |  | 
3 | COc1cccc(N(C)C)c1CN1CCC(Nc2nc(NCC(C)(C)CN(C)C)nc3ccccc23)CC1 [Compound 96, N2-(3-(Dimethylamino)-2,2-dimethylpropyl)-N4-(1-(2-(dimethylamino)-6-methoxybenzyl)piperidin-4-yl)quinazoline-2,4-diamine] | 240 | 100 |  | 
4 | COc1cccc(N(C)C)c1CN1CCC(Nc2nc(NCCC3CCCN3C)nc3ccccc23)CC1 (centres unmarked) [Compound 97, N4-(1-(2-(Dimethylamino)-6-methoxybenzyl)piperidin-4-yl)-N2-(2-(1-methylpyrrolidin-2-yl)ethyl)quinazoline-2,4-diamine] | 140 | 100 |  | 
5 | COc1cccc(N(C)C)c1CN1CCC(Nc2nc(NCC3CCCO3)nc3ccccc23)CC1 (centres unmarked) [Compound 98, N4-(1-(2-(Dimethylamino)-6-methoxybenzyl)piperidin-4-yl)-N2-((tetrahydrofuran-2-yl)methyl)quinazoline-2,4-diamine] | 624 | 98 |  | 
6 | COc1cccc(N(C)C)c1CN1CCC(Nc2nc(NCCCO)nc3ccccc23)CC1 [Compound 99, 3-(4-(1-(2-(Dimethylamino)-6-methoxybenzyl)piperidin-4-ylamino)quinazolin-2-ylamino)propan-1-ol] | 611 | 100 |  | 
7 | COc1cccc(N(C)C)c1CN1CCC(Nc2nc(NCCC#N)nc3ccccc23)CC1 [Compound 100, 3-(4-(1-(2-(Dimethylamino)-6-methoxybenzyl)piperidin-4-ylamino)quinazolin-2-ylamino)propanenitrile] |  | 100 | 1900 | 
8 | CNCCCCNc1nc(NC2CCN(Cc3c(OC)cccc3N(C)C)CC2)c2ccccc2n1 [Compound 102, N4-(1-(2-(Dimethylamino)-6-methoxybenzyl)piperidin-4-yl)-N2-(4-(methylamino)butyl)quinazoline-2,4-diamine] | 215 | 97 |  | 
9 | COc1cccc(N(C)C)c1CN1CCC(Nc2nc(N3CC(CN(C)C(=O)OC(C)(C)C)C3)nc3ccccc23)CC1 [Compound 103, tert-Butyl (1-(4-(1-(2-(Dimethylamino)-6-methoxybenzyl)piperidin-4-ylamino)quinazolin-2-yl)azetidin-3-yl)methyl(methyl)carbamate] |  | 82 | 4100 | 
10 | CNCC1CN(c2nc(NC3CCN(Cc4c(OC)cccc4N(C)C)CC3)c3ccccc3n2)C1 [Compound 104, N-(1-(2-(Dimethylamino)-6-methoxybenzyl)piperidin-4-yl)-2-(3-((methylamino)methyl)azetidin-1-yl)quinazolin-4-amine] |  | 97 | 1000 | 
11 | CCNCCNc1nc(NC2CCN(Cc3c(OC)cccc3N(C)C)CC2)c2ccccc2n1 [Compound 105, N4-(1-(2-(Dimethylamino)-6-methoxybenzyl)piperidin-4-yl)-N2-(2-(ethylamino)ethyl)quinazoline-2,4-diamine] | 771 | 98 |  | 
12 | COc1cccc(N(C)C)c1CN1CCC(Nc2nc(NCC3CCN(C(=O)OC(C)(C)C)C3)nc3ccccc23)CC1 (centres unmarked) [Compound 106, tert-Butyl 3-((4-(1-(2-(Dimethylamino)-6-methoxybenzyl)piperidin-4-ylamino)quinazolin-2-ylamino)methyl)pyrrolidine-1-carboxylate] |  | 73 | 2300 | 
13 | CCN1CCC(CNc2nc(NC3CCN(Cc4c(OC)cccc4N(C)C)CC3)c3ccccc3n2)C1 (centres unmarked) [Compound 107, N4-(1-(2-(Dimethylamino)-6-methoxybenzyl)piperidin-4-yl)-N2-((1-ethylpyrrolidin-3-yl)methyl)quinazoline-2,4-diamine] | 653 | 96 |  | 
14 | COc1cccc(N(C)C)c1CN1CCC(Nc2nc(NCC3CN(C(=O)OC(C)(C)C)C3)nc3ccccc23)CC1 [Compound 108, tert-Butyl 3-((4-(1-(2-(Dimethylamino)-6-methoxybenzyl)piperidin-4-ylamino)quinazolin-2-ylamino)methyl)azetidine-1-carboxylate] |  | 89 | 2000 | 
15 | COc1cccc(N(C)C)c1CN1CCC(Nc2nc(NCC3CNC3)nc3ccccc23)CC1 [Compound 109, N2-(Azetidin-3-ylmethyl)-N4-(1-(2-(dimethylamino)-6-methoxybenzyl)piperidin-4-yl)quinazoline-2,4-diamine] | 155 | 98 |  | 
16 | COc1cccc(N(C)C)c1CN1CCC(Nc2nc(NC[C@H]3CCN(C(=O)OC(C)(C)C)C3)nc3ccccc23)CC1 [Compound 110, (R)-tert-Butyl 3-((4-(1-(2-(Dimethylamino)-6-methoxybenzyl)piperidin-4-ylamino)quinazolin-2-ylamino)methyl)pyrrolidine-1-carboxylate] |  | 81 | 2200 | 
17 | COc1cccc(N(C)C)c1CN1CCC(Nc2nc(NC[C@H]3CCNC3)nc3ccccc23)CC1 [Compound 111, (S)—N-4-(1-(2-(Dimethylamino)-6-methoxybenzyl)piperidin-4-yl)-N2-(pyrrolidin-3-ylmethyl)quinazoline-2,4-diamine] |  | 98 |  | 224
18 | COc1cccc(N(C)C)c1CN1CCC(Nc2nc(NC[C@@H]3CCN(C(=O)OC(C)(C)C)C3)nc3ccccc23)CC1 [Compound 112, (S)-tert-Butyl 3-((4-(1-(2-(Dimethylamino)-6-methoxybenzyl)piperidin-4-ylamino)quinazolin-2-ylamino)methyl)pyrrolidine-1-carboxylate] |  | 77 | 2100 | 
19 | COc1cccc(N(C)C)c1CN1CCC(Nc2nc(NC[C@@H]3CCNC3)nc3ccccc23)CC1 [Compound 113, (R)—N-4-(1-(2-(Dimethylamino)-6-methoxybenzyl)piperidin-4-yl)-N2-(pyrrolidin-3-ylmethyl)quinazoline-2,4-diamine] | 129 | 99 |  | 
20 | COc1cccc(N(C)C)c1CN1CCC(Nc2nc(NCC[C@@H]3CCCN3C(=O)OC(C)(C)C)nc3ccccc23)CC1 [Compound 114, (S)-tert-Butyl 2-(2-(4-(1-(2-(Dimethylamino)-6-methoxybenzyl)piperidin-4-ylamino)quinazolin-2-ylamino)ethyl)pyrrolidine-1-carboxylate] |  | 75 | 2100 | 
21 | COc1cccc(N(C)C)c1CN1CCC(Nc2nc(NCC[C@@H]3CCCN3)nc3ccccc23)CC1 [Compound 115, (S)—N-4-(1-(2-(Dimethylamino)-6-methoxybenzyl)piperidin-4-yl)-N2-(2-(pyrrolidin-2-yl)ethyl)quinazoline-2,4-diamine] | 234 | 95 |  | 
22 | COc1cccc(N(C)C)c1CN1CCC(Nc2nc(NCC[C@H]3CCCN3C(=O)OC(C)(C)C)nc3ccccc23)CC1 [Compound 116, (R)-tert-Butyl 2-(2-(4-(1-(2-(Dimethylamino)-6-methoxybenzyl)piperidin-4-ylamino)quinazolin-2-ylamino)ethyl)pyrrolidine-1-carboxylate] |  | 83 | 2200 | 
23 | COc1cccc(N(C)C)c1CN1CCC(Nc2nc(NCC[C@H]3CCCN3)nc3ccccc23)CC1 [Compound 117, (R)—N-4-(1-(2-(Dimethylamino)-6-methoxybenzyl)piperidin-4-yl)-N2-(2-(pyrrolidin-2-yl)ethyl)quinazoline-2,4-diamine] | 319 | 95 |  | 
24 | COc1cccc(N(C)C)c1CN1CCC(Nc2nc(NCCNC(C)=O)nc3ccccc23)CC1 [Compound 118, N-(2-(4-(1-(2-(Dimethylamino)-6-methoxybenzyl)piperidin-4-ylamino)quinazolin-2-ylamino)ethyl)acetamide] | 762 | 97 |  | 
25 | COc1cccc(N(C)C)c1CN1CCC(Nc2nc(NCCc3c[nH]cn3)nc3ccccc23)CC1 [Compound 119, N2-(2-(1H-Imidazol-4-yl)ethyl)-N4-(1-(2-(dimethylamino)-6-methoxybenzyl)piperidin-4-yl)quinazoline-2,4-diamine] | 387 | 96 |  | 
